Assay results: PubChem BioAssay AID1745844 (Carcinogenic Potency Database (CPDB), 2022)
Activity calls are given as the source filed them. How the calls were made is not given here.

System: rodent lifetime carcinogenesis bioassay, tumor incidence TD50
Test: chronic cancer bioassays in animals – CPDB, compiled studies (AID 1745844)
Conditions: by gavage, dosed 103 weeks, study length 104 weeks

c1ccc2occc2c1
TD50 (mouse, strain B6C3F1, females, site: any site (literature study), lesion: several types, types named in the paper): 45.9 mg/kg/day | TD50 (mouse, strain B6C3F1, females, site: forestomach + liver + lung, lesion: squamous-cell carcinoma + squamous-cell papilloma + hepatocellular adenoma + alveolar/bronchiolar adenoma + alveolar/bronchiolar): 33.4 mg/kg/day | TD50 (mouse, strain B6C3F1, females, site: forestomach, lesion: squamous-cell carcinoma + squamous-cell papilloma): 145 mg/kg/day | TD50 (mouse, strain B6C3F1, females, site: forestomach, lesion: squamous-cell papilloma): 172 mg/kg/day | TD50 (mouse, strain B6C3F1, females, site: liver, lesion: hepatocellular adenoma + hepatocellular carcinoma + neoplastic nodule): 36.4 mg/kg/day | TD50 (mouse, strain B6C3F1, females, site: liver, lesion: hepatocellular adenoma + hepatocellular carcinoma): 36.4 mg/kg/day | TD50 (mouse, strain B6C3F1, females, site: liver, lesion: hepatocellular adenoma): 34.4 mg/kg/day | TD50 (mouse, strain B6C3F1, females, site: lung, lesion: alveolar/bronchiolar adenoma + alveolar/bronchiolar carcinoma): 174 mg/kg/day | TD50 (mouse, strain B6C3F1, females, site: lung, lesion: alveolar/bronchiolar adenoma): 224 mg/kg/day | TD50 (mouse, strain B6C3F1, females, site: multiple organs + spleen, lesion: malignant lymphoma, undifferentiated type): 322 mg/kg/day | TD50 (mouse, strain B6C3F1, males, site: any site (literature study), lesion: several types, types named in the paper): 54.3 mg/kg/day | TD50 (mouse, strain B6C3F1, males, site: forestomach + liver + lung, lesion: squamous-cell carcinoma + squamous-cell papilloma + hepatocellular adenoma + hepatoblastoma + hepatocellular carcinoma + alveolar/): 23.9 mg/kg/day | TD50 (mouse, strain B6C3F1, males, site: forestomach, lesion: squamous-cell carcinoma + squamous-cell papilloma): 108 mg/kg/day | TD50 (mouse, strain B6C3F1, males, site: forestomach, lesion: squamous-cell carcinoma): 383 mg/kg/day | TD50 (mouse, strain B6C3F1, males, site: forestomach, lesion: squamous-cell papilloma): 154 mg/kg/day | TD50 (mouse, strain B6C3F1, males, site: liver, lesion: hepatoblastoma + hepatocellular carcinoma): 114 mg/kg/day | TD50 (mouse, strain B6C3F1, males, site: liver, lesion: hepatoblastoma): 102 mg/kg/day | TD50 (mouse, strain B6C3F1, males, site: liver, lesion: hepatocellular adenoma + hepatoblastoma + hepatocellular carcinoma): 19.8 mg/kg/day | TD50 (mouse, strain B6C3F1, males, site: liver, lesion: hepatocellular adenoma + hepatocellular carcinoma + neoplastic nodule): 21.3 mg/kg/day | TD50 (mouse, strain B6C3F1, males, site: liver, lesion: hepatocellular adenoma + hepatocellular carcinoma): 21.3 mg/kg/day | TD50 (mouse, strain B6C3F1, males, site: liver, lesion: hepatocellular adenoma): 20.5 mg/kg/day | TD50 (mouse, strain B6C3F1, males, site: lung, lesion: alveolar/bronchiolar adenoma + alveolar/bronchiolar carcinoma): 160 mg/kg/day | TD50 (mouse, strain B6C3F1, males, site: lung, lesion: alveolar/bronchiolar adenoma): 136 mg/kg/day | TD50 (mouse, strain B6C3F1, males, site: multiple organs, lesion: malignant lymphoma, lymphocytic type): 919 mg/kg/day | TD50 (rat, strain Fischer 344, females, site: any site (literature study), lesion: several types, types named in the paper): 577 mg/kg/day | TD50 (rat, strain Fischer 344, females, site: kidney, lesion: tubular-cell adenocarcinoma): 424 mg/kg/day | TD50 (rat, strain Fischer 344, females, site: liver, lesion: hepatocellular adenoma + hepatocellular carcinoma + neoplastic nodule): 2090 mg/kg/day | TD50 (rat, strain Fischer 344, females, site: lung, lesion: alveolar/bronchiolar adenoma + alveolar/bronchiolar carcinoma): 418 mg/kg/day | TD50 (rat, strain Fischer 344, females, site: lung, lesion: alveolar/bronchiolar adenoma): 530 mg/kg/day | TD50 (rat, strain Fischer 344, females, site: subcutaneous tissue, lesion: neurilemoma, malignant): 98.8 mg/kg/day | TD50 (rat, strain Fischer 344, females, site: tongue, lesion: squamous-cell papilloma): 574 mg/kg/day | TD50 (rat, strain Fischer 344, males, site: any site (literature study), lesion: several types, types named in the paper): 22.5 mg/kg/day | TD50 (rat, strain Fischer 344, males, site: liver + multiple organs, lesion: mononuclear-cell leukemia): 55.3 mg/kg/day | TD50 (rat, strain Fischer 344, males, site: lung, lesion: alveolar/bronchiolar carcinoma): 166 mg/kg/day | TD50 (rat, strain Fischer 344, males, site: mammary gland, lesion: fibroadenoma): 271 mg/kg/day | TD50 (rat, strain Fischer 344, males, site: pituitary gland, lesion: adenoma, NOS): 45.8 mg/kg/day | TD50 (rat, strain Fischer 344, males, site: testis, lesion: interstitial-cell tumor): 8.03 mg/kg/day (inactive) | TD50 (rat, strain Fischer 344, males, site: thyroid gland, lesion: follicular-cell carcinoma): 389 mg/kg/day
